Measurements taken from ChEMBL document CHEMBL5236666, “Investigation of mitochondrial targeting ability of sydnones and sydnonimines and mitochondria-targeted delivery of celecoxib” (Bioorg Med Chem Lett, 2023).

Assays:
[1] = test system: HeLa; assay: Cytotoxicity against human HeLa cells assessed as inhibition of cell proliferation in presence of 100 uM of DIBAC; format: functional, cell-based
[2] = test system: HepG2; assay: Cytotoxicity against human HepG2 cells assessed as inhibition of cell proliferation; format: functional, cell-based
[3] = test system: HeLa; assay: Cytotoxicity against human HeLa cells assessed as inhibition of cell proliferation; format: functional, cell-based
[4] = test system: HepG2; assay: Cytotoxicity against human HepG2 cells assessed as inhibition of cell proliferation in presence of 100 uM of DIBAC; format: functional, cell-based
[5] = Drug uptake in human HeLa cells assessed as increase in colocalization by measuring fluorescence intensity at 5 uM incubated for 30 mins; format: ADME, cell-based; conditions: 0.5 h
[6] = Drug uptake in mitochondria of human HeLa cells incubated for 30 mins; format: ADME; conditions: 0.5 h

Row | SMILES | IC50 [2] | IC50 [3] | Drug uptake [6] | also measured
1 | CCOC(=O)c1ccc(-[n+]2cc([N-]S(=O)(=O)c3ccc(-n4nc(C(F)(F)F)cc4-c4ccc(C)cc4)cc3)on2)cc1 | > 100 µM | > 100 µM | – | IC50 [1]: 85.3 µM; IC50 [4]: 66.2 µM
2 | O=C(NCCCNC(=O)c1ccc(-[n+]2cc([O-])on2)cc1)OCC1C[C@@H]2C=C[C@H]1C2 (some centres undefined) | – | – | – | Drug uptake [5]: Active
3 | CC1=CC(C)=[N+]2C1=Cc1ccc(CCC(=O)NCCCNC(=O)c3ccc(-[n+]4cc(O)on4)cc3)n1[B-]2(F)F | – | – | Active | –
4 | CC1=CC(C)=[N+]2C1=Cc1ccc(CCC(=O)NCCCNC(=O)c3ccc(-[n+]4noc(O)c4-c4ccccc4)cc3)n1[B-]2(F)F | – | – | Not Active | –
5 | Cc1ccc(-c2cc(C(F)(F)F)nn2-c2ccc(S(N)(=O)=O)cc2)cc1 [CELECOXIB] | 43.6 µM | 32.7 µM | – | –
